Experiment [1] relates to acute myocardial infarction injury. Briefly: Acute myocardial infarction injury (ischemia/reperfusion) in a rabbit model. It is filed as in vivo, New Zealand white rabbits. The conditions noted are these: 30 min ischemia, 3 h reperfusion, IV infusion, compared to the control (vehicle alone) group. The method, then:
The effects of a combination of aromatic-cationic peptides and a cardiovascular agent in protecting against an acute myocardial infarction injury in a rabbit model are investigated.
New Zealand white rabbits are used in this study. The rabbits are males and >10 weeks in age. Environmental controls in the animal rooms are set to maintain temperatures of 61° to 72° F. and relative humidity between 30% and 70%. Room temperature and humidity are recorded hourly, and monitored daily. There are approximately 10-15 air exchanges per hour in the animal rooms. Photoperiod is 12-hr light/12-hr dark (via fluorescent lighting) with exceptions as necessary to accommodate dosing and data collection. Routine daily observations are performed. Harlan Teklad, Certified Diet (2030C), rabbit diet is provided approximately 180 grams per day from arrival to the facility. […]
In all cases, treatments are started approximately 10 min after the onset of a 30 min ischemic insult (coronary occlusion) and continued for up to 3 h following reperfusion. In all cases, cardiovascular function is monitored both prior to and during ischemia, as well as for up to 180 min (3 h) post-reperfusion. The experiments are terminated 3 h post-reperfusion (end of study); irreversible myocardial injury (infarct size by histomorphometery) at this time-point is evaluated, and is the primary-end-point of the study. […]

Experiment [2] concerns cardiac ischemia-reperfusion injury. In words: Large animal model of acute myocardial infarction injury (cardiac ischemia-reperfusion). It is filed as in vivo, sheep or pig. The note with it: peptide given prior to ischemia. The method, then:
The effects of aromatic-cationic peptides and cardiovascular agent in protecting against cardiac ischemia-reperfusion injury in a large animal model (e.g., a porcine or ovine model) are investigated.
The animals are sedated with intramuscular ketamine (50 mg/kg), glycopyrrolate (0.2 mg/kg), and buprenorphine (0.05 mg/kg). After intubation, animals are ventilated with a mechanical respirator (Hallowell EMC Model AWS; Hallowell, Pittsfield, Mass.) using room air enriched with 0.6 L/min oxygen. Catheters are introduced into a small auricular artery and vein, and into the right jugular vein for the continuous measurement of blood pressure and the administration of intravenous medications. […] Heart rate, blood pressure, surface electrocardiogram, and rectal temperature are continuously monitored (Hewlett Packard 78534C; Palo Alto, Calif.). […]
Animals undergo a left thoracotomy, and silicone vascular loops (Quest Medical, Allen, Tex.) are placed around the left anterior descending artery and its second diagonal branch, which is 40% of the distance from the apex to the base of the heart. […] Arterial blood pressure, heart rate, surface electrocardiograms (ECG), and rectal temperature are continuously monitored (Hewlett Packard 78534C; Palo Alto, Calif.) throughout the protocol in all animals. […]

D-Arg-2′6′-Dmt-Lys-Phe-NH2 [peptide]: the “infarct size and apoptotic cell death” value in experiment [1] is “significantly reduced”. For the same substance, in experiment [2], the “redox ratio (RR) during ischemia” value is on record as “blunted drop in the RR during ischemia”.

For the origin of these results see patent publication US20160175379A1, “COMBINATION THERAPY FOR THE TREATMENT OF ISCHEMIA-REPERFUSION INJURY” (STEALTH BIO THERAPEUTICS CORP, priority 2013, published 2016).
